Measurements taken from ChEMBL document CHEMBL5303573, “Mapping human microbiome drug metabolism by gut bacteria and their genes” (Nature, 2019).

What was measured:
[1] = The drug is tested on Bacteroides xylanisolvens strain: DSM18836 for biotransformation. The drug concentrations were measured before and after a 12-h incubation by liquid-chromatography-coupled mass spectrometry (LC–MS); details: 2 µM
[2] = The drug is tested on Bacteroides uniformis strain: ATCC8492 for biotransformation. The drug concentrations were measured before and after a 12-h incubation by liquid-chromatography-coupled mass spectrometry (LC–MS); details: 2 µM
[3] = The drug is tested on Bacteroides fragilis strain: HMW615 for biotransformation. The drug concentrations were measured before and after a 12-h incubation by liquid-chromatography-coupled mass spectrometry (LC–MS); details: 2 µM
[4] = The drug is tested on Clostridium scindens strain: ATCC35704 for biotransformation. The drug concentrations were measured before and after a 12-h incubation by liquid-chromatography-coupled mass spectrometry (LC–MS); details: 2 µM
[5] = The drug is tested on Coprococcus comes strain: ATCC27758 for biotransformation. The drug concentrations were measured before and after a 12-h incubation by liquid-chromatography-coupled mass spectrometry (LC–MS); format: ADME; design: dose 2 uM, timepoint 0 vs 12 hours; details: 2 µM
[6] = The drug is tested on Bacteroides coprophilus strain: DSM18228 for biotransformation. The drug concentrations were measured before and after a 12-h incubation by liquid-chromatography-coupled mass spectrometry (LC–MS); details: 2 µM
[7] = The drug is tested on Providencia rettgeri strain: DSM1131 for biotransformation. The drug concentrations were measured before and after a 12-h incubation by liquid-chromatography-coupled mass spectrometry (LC–MS); format: ADME; design: dose 2 uM, timepoint 0 vs 12 hours; details: 2 µM
[8] = The drug is tested on Anaerotruncus colihominis strain: DSM17241 for biotransformation. The drug concentrations were measured before and after a 12-h incubation by liquid-chromatography-coupled mass spectrometry (LC–MS); details: 2 µM
[9] = The drug is tested on Clostridium ramosum strain: DSM1402 for biotransformation. The drug concentrations were measured before and after a 12-h incubation by liquid-chromatography-coupled mass spectrometry (LC–MS); details: thomasclavelia ramosa, 2 µM
[10] = The drug is tested on Clostridium sporogenes strain: ATCC15579 for biotransformation. The drug concentrations were measured before and after a 12-h incubation by liquid-chromatography-coupled mass spectrometry (LC–MS); details: 2 µM
[11] = The drug is tested on Enterococcus faecalis strain: V583 for biotransformation. The drug concentrations were measured before and after a 12-h incubation by liquid-chromatography-coupled mass spectrometry (LC–MS); details: 2 µM
[12] = The drug is tested on Bacteroides fragilis strain: HMW610 for biotransformation. The drug concentrations were measured before and after a 12-h incubation by liquid-chromatography-coupled mass spectrometry (LC–MS); details: 2 µM
[13] = The drug is tested on Parabacteroides merdae strain: ATCC43184 for biotransformation. The drug concentrations were measured before and after a 12-h incubation by liquid-chromatography-coupled mass spectrometry (LC–MS); details: 2 µM
[14] = limosilactobacillus reuteri cf48-3a, 12 h, 2 µM
Description: The drug is tested on Lactobacillus reuteri CF48-3A strain: BEI HM-102 for biotransformation. The drug concentrations were measured before and after a 12-h incubation by liquid-chromatography-coupled mass spectrometry (LC–MS)

[15] = bacteroides thetaiotaomicron, 12 h, 2 µM
Description: The drug is tested on Bacteroides thetaiotaomicron strain: 3731 for biotransformation. The drug concentrations were measured before and after a 12-h incubation by liquid-chromatography-coupled mass spectrometry (LC–MS)

[16] = The drug is tested on Blautia hansenii strain: DSM20583 for biotransformation. The drug concentrations were measured before and after a 12-h incubation by liquid-chromatography-coupled mass spectrometry (LC–MS); details: 2 µM
[17] = bacteroides intestinalis, 12 h, 2 µM
Description: The drug is tested on Bacteroides intestinalis strain: DSM17393 for biotransformation. The drug concentrations were measured before and after a 12-h incubation by liquid-chromatography-coupled mass spectrometry (LC–MS)

[18] = roseburia intestinalis, 12 h, 2 µM
Description: The drug is tested on Roseburia intestinalis strain: L1-82 for biotransformation. The drug concentrations were measured before and after a 12-h incubation by liquid-chromatography-coupled mass spectrometry (LC–MS)

[19] = bacteroides thetaiotaomicron, 12 h, 2 µM; remark: listed apart in the source
Description: The drug is tested on Bacteroides thetaiotaomicron strain: 7330 for biotransformation. The drug concentrations were measured before and after a 12-h incubation by liquid-chromatography-coupled mass spectrometry (LC–MS)

[20] = The drug is tested on Bifidobacterium breve strain: DSM20213 for biotransformation. The drug concentrations were measured before and after a 12-h incubation by liquid-chromatography-coupled mass spectrometry (LC–MS); details: 2 µM

Measured: Bacterial Biotransformation

CCCCc1nc(Cl)c(CO)n1Cc1ccc(-c2ccccc2-c2nn[nH]n2)cc1 [LOSARTAN]
Compound metabolized: [1] | [2] | [3] | [12] | [13]
Compound NOT metabolized: [4] | [5] | [6] | [7] | [8] | [9] | [10] | [11] | [14] | [15] | [16]

COc1cc2nc(N(C)CCCNC(=O)C3CCCO3)nc(N)c2cc1OC (centres undefined) [ALFUZOSIN]
Compound NOT metabolized: [1] | [3] | [4] | [5] | [6] | [17] | [7] | [8] | [9] | [10] | [11] | [18] | [13] | [14] | [15] | [16]

CCOC(=O)C1=C[C@]2(CC)CCCN3CCc4c(n1c1ccccc41)[C@@H]32 [VINPOCETINE]
Compound NOT metabolized: [3] | [19] | [4] | [5] | [6] | [17] | [7] | [8] | [9] | [10] | [11] | [13] | [14] | [15] | [20]
Compound metabolized: [16]

CC(C)c1nc(N(C)S(C)(=O)=O)nc(-c2ccc(F)cc2)c1/C=C/[C@@H](O)C[C@@H](O)CC(=O)[O-].CC(C)c1nc(N(C)S(C)(=O)=O)nc(-c2ccc(F)cc2)c1/C=C/[C@@H](O)C[C@@H](O)CC(=O)[O-].[Ca+2] [ROSUVASTATIN CALCIUM]
Compound NOT metabolized: [1] | [2] | [3] | [19] | [4] | [5] | [6] | [17] | [7] | [8] | [9] | [10] | [11] | [18] | [14] | [15] | [20] | [16]

N=C(N)NC(=O)Cc1c(Cl)cccc1Cl [GUANFACINE]
Compound NOT metabolized: [1] | [2] | [3] | [5] | [17] | [7] | [8] | [9] | [10] | [11] | [12] | [18] | [13] | [16]

C#C[C@]1(OC(C)=O)CC[C@H]2[C@@H]3CCC4=C[C@@H](OC(C)=O)CC[C@@H]4[C@H]3CC[C@@]21C [ETHYNODIOL DIACETATE]
Compound NOT metabolized: [1] | [3] | [19] | [4] | [5] | [6] | [17] | [7] | [8] | [9] | [10] | [11] | [18] | [13] | [14] | [15] | [16]

CC1=C(CC(=O)O)c2cc(F)ccc2/C1=C\c1ccc([S+](C)[O-])cc1 (centres undefined)
Compound NOT metabolized: [1] | [2] | [3] | [19] | [4] | [5] | [6] | [17] | [8] | [9] | [10] | [11] | [12] | [18] | [13] | [14] | [15] | [20] | [16]

C=CC[C@@H]1/C=C(\C)C[C@H](C)C[C@H](OC)[C@H]2O[C@@](O)(C(=O)C(=O)N3CCCC[C@H]3C(=O)O[C@H](/C(C)=C/[C@@H]3CC[C@@H](O)[C@H](OC)C3)[C@H](C)[C@@H](O)CC1=O)[C@H](C)C[C@@H]2OC.O [TACROLIMUS]
Compound metabolized: [1] | [2] | [4] | [5] | [6] | [17] | [7] | [8] | [9] | [10] | [18] | [14] | [16]
Compound NOT metabolized: [3] | [19] | [13] | [15] | [20]
